Molecules are shown by their SMILES. Active and inactive are the calls of the source. The rule behind the calls is not given here. Where only a bound is given, the exact number is not on record here.

In assay [1] the target is T1, von Hippel-Lindau disease tumor suppressor/Phosphatidylinositol 4,5-bisphosphate 3-kinase catalytic subunit alpha isoform (Homo sapiens, UniProt P42336+P40337). The assay can be described thus: PROTAC activity at PI3K-p110alpha/VHL in human MCF7/ADM cells assessed as induction of PI3K-p110alpha degradation incubated for 24 hrs by Western blot analysis. It is filed as cell-based. On the technique in general: In western blotting, separated proteins are transferred to a membrane and probed.
Target sequence in this assay (P42336 whole entry, canonical isoform): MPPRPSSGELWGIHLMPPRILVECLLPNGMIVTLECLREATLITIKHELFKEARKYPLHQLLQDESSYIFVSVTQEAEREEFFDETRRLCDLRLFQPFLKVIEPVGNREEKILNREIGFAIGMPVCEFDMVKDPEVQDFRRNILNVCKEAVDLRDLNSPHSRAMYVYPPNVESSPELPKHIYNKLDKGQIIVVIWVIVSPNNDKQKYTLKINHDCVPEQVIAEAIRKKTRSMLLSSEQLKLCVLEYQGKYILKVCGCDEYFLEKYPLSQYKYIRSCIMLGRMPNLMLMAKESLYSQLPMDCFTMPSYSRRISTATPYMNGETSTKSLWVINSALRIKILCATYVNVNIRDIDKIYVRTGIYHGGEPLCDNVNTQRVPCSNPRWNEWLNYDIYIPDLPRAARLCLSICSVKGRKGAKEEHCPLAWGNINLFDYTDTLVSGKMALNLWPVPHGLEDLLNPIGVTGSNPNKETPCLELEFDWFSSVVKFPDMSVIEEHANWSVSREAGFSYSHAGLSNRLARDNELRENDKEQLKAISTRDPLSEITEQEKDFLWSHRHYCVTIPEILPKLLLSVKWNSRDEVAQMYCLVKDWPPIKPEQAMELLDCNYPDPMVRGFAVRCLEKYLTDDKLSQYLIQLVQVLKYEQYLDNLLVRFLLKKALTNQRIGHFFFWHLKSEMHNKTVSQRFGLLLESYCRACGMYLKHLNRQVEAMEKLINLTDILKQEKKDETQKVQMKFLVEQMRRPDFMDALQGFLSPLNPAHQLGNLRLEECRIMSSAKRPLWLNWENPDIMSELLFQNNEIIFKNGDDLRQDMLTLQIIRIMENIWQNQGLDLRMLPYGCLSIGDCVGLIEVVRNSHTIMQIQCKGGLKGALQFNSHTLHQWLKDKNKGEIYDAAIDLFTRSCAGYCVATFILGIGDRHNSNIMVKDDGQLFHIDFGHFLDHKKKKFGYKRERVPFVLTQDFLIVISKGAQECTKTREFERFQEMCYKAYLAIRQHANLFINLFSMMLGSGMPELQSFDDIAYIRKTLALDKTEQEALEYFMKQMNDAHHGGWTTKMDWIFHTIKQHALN
Target sequence in this assay (P40337 whole entry, canonical isoform): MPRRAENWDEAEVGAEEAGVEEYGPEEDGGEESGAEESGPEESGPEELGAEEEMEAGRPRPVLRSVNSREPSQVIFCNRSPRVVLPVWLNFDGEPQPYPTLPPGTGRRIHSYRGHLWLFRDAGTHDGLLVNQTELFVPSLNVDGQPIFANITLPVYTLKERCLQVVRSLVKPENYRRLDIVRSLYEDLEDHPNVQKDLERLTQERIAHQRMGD

For assay [2], the system named is A549/CDDP. The assay is described as follows: Induction of apoptosis in human A549/DDP cells at 6.25 uM incubated for 24 hrs by Annexin V-FITC/PI staining based flow cytometry analysis (reference value: 4.27%). It is filed as functional. In general terms: Flow cytometry measures light scatter and fluorescence of single cells or particles in a stream.
For assay [3], the system named is A549/CDDP. The assay can be described thus: Induction of apoptosis in human A549/DDP cells at 12.5 uM incubated for 24 hrs by Annexin V-FITC/PI staining based flow cytometry analysis (reference value: 4.27%). It is filed as functional.
In assay [4] the test system is A549/CDDP. The assay can be described thus: Cytotoxicity against human A549/DDP cells at 100 uM incubated for 24 hrs. It is filed as functional, cell-based.
Assay [5] has as its target von Hippel-Lindau disease tumor suppressor/Phosphatidylinositol 4,5-bisphosphate 3-kinase catalytic subunit beta isoform (Homo sapiens, UniProt P42338+P40337). The assay is described as follows: PROTAC activity at PI3K-p110beta/VHL in human MCF7/ADM cells assessed as reduction in PI3K-p110beta level at 25 uM incubated for 24 hrs by Western blot analysis relative to control. It is filed as cell-based. The arrangement: scale not given: the % may be the effect or the level left.

For assay [6], the target named is T1, von Hippel-Lindau disease tumor suppressor/Phosphatidylinositol 4,5-bisphosphate 3-kinase catalytic subunit alpha isoform. The assay can be described thus: PROTAC activity at PI3K-p110alpha/VHL in human A549/DDP cells assessed as reduction in PI3K-p110alpha level incubated for 24 hrs by Western blot analysis. It is filed as cell-based. Particulars: dose 0.04-50 µM.
Target sequence in this assay (P40337 whole entry, looked up, canonical isoform): as the sequence (P40337 whole entry, canonical isoform) above
Target sequence in this assay (P42336 whole entry, looked up, canonical isoform): as the sequence (P42336 whole entry, canonical isoform) above

The target is the same in assay [7]. The assay can be described thus: PROTAC activity at PI3K-p110alpha/VHL in human MCF7/ADM cells assessed as reduction in PI3K-p110alpha level incubated for 24 hrs by Western blot analysis. Particulars: dose 0.04-50 µM. It counts as cell-based.
Target sequence in this assay (P40337 whole entry, looked up, canonical isoform): as the sequence (P40337 whole entry, canonical isoform) above
Target sequence in this assay (P42336 whole entry, looked up, canonical isoform): as the sequence (P42336 whole entry, canonical isoform) above
Assay [8] shares this target. The assay can be described thus: PROTAC activity at PI3K-p110alpha/VHL in human MCF7/ADM cells assessed as reduction in PI3K-p110alpha mRNA level at 25 uM measured for 24 hrs by qRT-PCR analysis. It is filed as cell-based. On the technique in general: Quantitative PCR measures a nucleic acid by following its amplification.
Target sequence in this assay (P40337 whole entry, looked up, canonical isoform): as the sequence (P40337 whole entry, canonical isoform) above
Target sequence in this assay (P42336 whole entry, looked up, canonical isoform): as the sequence (P42336 whole entry, canonical isoform) above
Assay [9] is described as follows: Induction of apoptosis in human MCF7/ADM cells at 12.5 uM incubated for 24 hrs by Annexin V-FITC/PI staining based flow cytometry analysis (reference value: 5.20%). It is filed as functional.
Assay [10] in a line: Induction of apoptosis in human MCF7/ADM cells at 25 uM incubated for 24 hrs by Annexin V-FITC/PI staining based flow cytometry analysis (reference value: 5.20%). It counts as functional.
A further assay has as its system MCF7/ADM. The assay can be described thus: Antitumor activity against human MCF7/ADM cells xenografted in BALB/c mouse assessed as reduction in tumor volume at 50 mg/kg, ip measured every 2 days in presence of Adriamycin. It is filed as functional, organism-based. Particulars: time 2.0 day.

von Hippel-Lindau disease tumor suppressor/Phosphatidylinositol 4,5-bisphosphate 3-kinase catalytic subunit beta isoform, sequence (P40337 whole entry, looked up, canonical isoform): as the sequence (P40337 whole entry, canonical isoform) above
von Hippel-Lindau disease tumor suppressor/Phosphatidylinositol 4,5-bisphosphate 3-kinase catalytic subunit beta isoform, sequence (P42338 whole entry, looked up, canonical isoform): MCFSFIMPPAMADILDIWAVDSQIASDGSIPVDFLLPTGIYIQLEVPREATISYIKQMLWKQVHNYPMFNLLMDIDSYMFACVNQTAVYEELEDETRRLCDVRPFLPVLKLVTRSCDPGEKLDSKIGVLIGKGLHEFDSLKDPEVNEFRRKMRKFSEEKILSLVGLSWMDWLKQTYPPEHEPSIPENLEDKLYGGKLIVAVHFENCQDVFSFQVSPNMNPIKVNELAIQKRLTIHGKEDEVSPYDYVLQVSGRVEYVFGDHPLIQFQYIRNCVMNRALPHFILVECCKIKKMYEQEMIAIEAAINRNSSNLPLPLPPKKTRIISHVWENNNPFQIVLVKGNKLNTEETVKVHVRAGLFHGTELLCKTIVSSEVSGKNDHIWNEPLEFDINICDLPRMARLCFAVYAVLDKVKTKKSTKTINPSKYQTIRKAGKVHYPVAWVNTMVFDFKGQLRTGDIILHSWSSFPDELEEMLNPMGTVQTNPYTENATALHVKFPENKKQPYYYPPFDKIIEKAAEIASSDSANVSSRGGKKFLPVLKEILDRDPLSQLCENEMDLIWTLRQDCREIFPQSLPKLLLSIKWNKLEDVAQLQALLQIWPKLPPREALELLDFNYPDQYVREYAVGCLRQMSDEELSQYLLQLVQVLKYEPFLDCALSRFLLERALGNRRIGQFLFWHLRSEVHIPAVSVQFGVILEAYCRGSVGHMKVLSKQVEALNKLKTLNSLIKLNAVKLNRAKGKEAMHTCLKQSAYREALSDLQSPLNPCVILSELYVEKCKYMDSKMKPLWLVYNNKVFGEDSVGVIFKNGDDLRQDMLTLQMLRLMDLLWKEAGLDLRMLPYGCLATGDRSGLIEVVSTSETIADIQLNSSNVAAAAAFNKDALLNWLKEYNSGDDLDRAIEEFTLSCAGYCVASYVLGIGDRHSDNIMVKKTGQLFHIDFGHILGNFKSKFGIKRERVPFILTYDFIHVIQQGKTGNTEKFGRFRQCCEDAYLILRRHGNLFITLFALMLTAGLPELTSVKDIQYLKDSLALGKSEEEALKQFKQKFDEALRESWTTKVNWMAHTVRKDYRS

Take `Cc1cc(C(C)Nc2ccccc2C(=O)NCCCCCCC(=O)N[C@H](C(=O)N2C[C@H](O)C[C@H]2C(=O)NCc2ccc(-c3scnc3C)cc2)C(C)(C)C)c2nc(N3CCOCC3)cc(=O)n2c1` (stereo partly specified): in assay [1], the DC50 (as a rule, the concentration giving 50% degradation) was more than 50 µM. For the same molecule, the results for the Activity with A549/CDDP [2] and with A549/CDDP [3] were 8.73% and 15.76%, respectively. In addition, the result in the assay with A549/CDDP [4] was Active.

For the molecule `Cc1cc(C(C)Nc2ccccc2C(=O)NCCOCCOCCC(=O)N[C@H](C(=O)N2C[C@H](O)C[C@H]2C(=O)NCc2ccc(-c3scnc3C)cc2)C(C)(C)C)c2nc(N3CCOCC3)cc(=O)n2c1` (stereo partly specified), the Activity in [5] was 75%; in assay [6], “Dose-dependent-effect”; in assay [7] it was “Dose-dependent-effect”; in [9] it was 15.59%; in assay [10], 26.66%. For the same molecule, the result (in assay [8]; with MCF7/ADM) was Active.

The values are drawn from ChEMBL document CHEMBL6134905, “Double Swords in One: Novel Selective PI3K/110β PROTAC Degraders for the Treatment of Multidrug-Resistant Cancer by Activating ERS and Inhibiting P-gp” (J Med Chem, 2025).
